Columns and labels:
Del19/T790M/C797S EGFR = assay: EGFR degradation HTRF assay in H1975-clone #28 (DTC) cells; assay type: cell-based; conditions: H1975 # 28 DTC (Del19/T790M/C797S), 16h treatment; for DC50: HTRF; for Dmax (%): maximum percentage of degradation
Summary of the method: (§1)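 H1975 clones with endogenous EGFR knocked out and lentivirally expressed mutant EGFR treated 16 h at 37 °C with compounds, 8 doses from 10 uM, 5-fold dilutions, 0.2% DMSO. Lysates read by HTRF (665/620 nm) overnight; DC50 from four-parameter fit.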

L858R/T790M/C797S EGFR = target: T1, L858R/T790M/C797S EGFR (Homo sapiens, UniProt P00533, C797S/L858R/T790M); assay: EGFR degradation HTRF assay in H1975-clone #25 (LTC) cells; assay type: cell-based; conditions: 16h treatment; for DC50: H1975 # 25-LTC (L858R/T790M/C797S), HTRF; for Dmax: NCI-H1975, H1975 # 25-LTC (L858R/T790M/C797S), maximum percentage of degradation
T1 construct: expressed in transfected cells; host or cells: H1975 clone #25 (lentiviral over-expression, endogenous EGFR knocked out by sgRNA)
T1 sequence (P00533 25-1210 T790M/C797S/L858R): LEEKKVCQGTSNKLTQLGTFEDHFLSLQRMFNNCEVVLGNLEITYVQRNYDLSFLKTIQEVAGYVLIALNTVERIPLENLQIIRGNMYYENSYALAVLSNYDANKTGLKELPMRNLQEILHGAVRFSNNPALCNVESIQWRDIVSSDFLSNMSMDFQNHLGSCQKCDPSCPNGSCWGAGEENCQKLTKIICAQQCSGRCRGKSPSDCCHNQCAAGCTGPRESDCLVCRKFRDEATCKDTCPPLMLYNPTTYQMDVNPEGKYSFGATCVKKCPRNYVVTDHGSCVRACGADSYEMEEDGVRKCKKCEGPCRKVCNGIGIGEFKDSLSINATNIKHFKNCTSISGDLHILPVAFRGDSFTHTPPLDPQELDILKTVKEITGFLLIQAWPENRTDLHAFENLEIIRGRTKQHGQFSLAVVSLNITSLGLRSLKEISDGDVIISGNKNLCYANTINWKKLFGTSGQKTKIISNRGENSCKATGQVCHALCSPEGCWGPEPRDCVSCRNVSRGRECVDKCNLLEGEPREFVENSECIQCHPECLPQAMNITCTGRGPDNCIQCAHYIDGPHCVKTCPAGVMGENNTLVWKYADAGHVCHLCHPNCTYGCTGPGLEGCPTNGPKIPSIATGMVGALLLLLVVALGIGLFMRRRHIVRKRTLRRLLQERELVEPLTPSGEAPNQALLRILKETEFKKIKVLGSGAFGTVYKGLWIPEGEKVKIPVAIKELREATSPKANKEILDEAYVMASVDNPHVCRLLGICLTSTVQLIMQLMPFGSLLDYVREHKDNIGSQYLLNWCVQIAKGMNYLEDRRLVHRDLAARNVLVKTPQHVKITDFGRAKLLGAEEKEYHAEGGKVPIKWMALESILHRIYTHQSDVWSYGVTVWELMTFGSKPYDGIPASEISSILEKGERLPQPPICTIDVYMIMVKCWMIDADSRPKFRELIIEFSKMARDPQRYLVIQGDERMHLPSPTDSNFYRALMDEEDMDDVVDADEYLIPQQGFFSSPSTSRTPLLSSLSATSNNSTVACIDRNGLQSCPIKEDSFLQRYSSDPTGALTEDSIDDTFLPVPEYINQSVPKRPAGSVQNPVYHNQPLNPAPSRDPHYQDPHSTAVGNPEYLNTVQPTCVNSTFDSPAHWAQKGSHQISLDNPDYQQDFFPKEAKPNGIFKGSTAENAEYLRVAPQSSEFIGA
Summary of the method: as §1

Cc1cc2cc(n1)-c1cnn(C)c1OCCC[C@@H](C)CN1/C(=N/C2=O)Nc2ccc(N3CCC(N(C)C4CCN(c5cc(F)c([C@H]6CCC(=O)NC6=O)c(F)c5)CC4)CC3)cc21 [Example 394, (R)-3-(2,6-difluoro-4-(4-(methyl(1-((R,E)-1^1,2^6,7-trimethyl-3-oxo-5^2,5^3-dihydro-1^1H,5^1H-11-oxa-4-aza-5(2,1)-benzo[d]imidazola-2(2,4)-pyridina-1(4,5)-pyrazolacycloundecaphane-5^6-yl)piperidin-4-yl)amino)piperidin-1-yl)phenyl)piperidine-2,6-dione]
DC50 (Del19/T790M/C797S EGFR): 0.901 nM | Dmax (%) (Del19/T790M/C797S EGFR): 69.35% | DC50 (L858R/T790M/C797S EGFR): 0.787 nM | Dmax (L858R/T790M/C797S EGFR): 74.1%

Cc1cc2cc(n1)-c1cnn(C)c1OCCC[C@@H](C)CN1/C(=N/C2=O)Nc2ccc(C(=O)N(C)C[C@@H]3CCN(CCc4cc(F)c([C@H]5CCC(=O)NC5=O)c(F)c4)CC3(F)F)cc21 [Example 273, (R,E)-N—(((S)-1-(4-((R)-2,6-dioxopiperidin-3-yl)-3,5-difluorophenethyl)-3,3-difluoropiperidin-4-yl)methyl)-N,1′,2,7-tetramethyl-3-oxo-5^2,5^3-dihydro-1^1H,5^1H-11-oxa-4-aza-5(2,1)-benzo[d]imidazola-2(2,4)-pyridina-1(4,5)-pyrazolacycloundecaphane-5^6-carboxamide]
DC50 (Del19/T790M/C797S EGFR): 0.489 nM | Dmax (%) (Del19/T790M/C797S EGFR): 66.66% | DC50 (L858R/T790M/C797S EGFR): 4.58 nM | Dmax (L858R/T790M/C797S EGFR): 88.8%

Cc1cc2cc(n1)-c1cnn(C)c1OCCC[C@@H](C)CN1/C(=N/C2=O)Nc2ccc(N3CCN(C(=O)[C@@H]4CN(c5cc(F)c([C@H]6CCC(=O)NC6=O)c(F)c5)CC4(C)C)CC3)cc21 [Example 326, (R)-3-(4-((S)-3,3-dimethyl-4-(4-((R,E)-1^1,2^6,7-trimethyl-3-oxo-5^2,5′-dihydro-1^1H,5^1H-11-oxa-4-aza-5(2,1)-benzo[d]imidazola-2(2,4)-pyridina-1(4,5)-pyrazolacycloundecaphane-5^6-yl)piperazine-1-carbonyl)pyrrolidin-1-yl)-2,6-difluorophenyl)piperidine-2,6-dione]
DC50 (Del19/T790M/C797S EGFR): 1.71 nM | Dmax (%) (Del19/T790M/C797S EGFR): 81.61% | DC50 (L858R/T790M/C797S EGFR): 1.88 nM | Dmax (L858R/T790M/C797S EGFR): 88.9%

Cc1cc2cc(n1)-c1cnn(C)c1OCCC[C@@H](C)CN1/C(=N/C2=O)Nc2ccc(N3CCN(CCCNc4cc(F)c([C@H]5CCC(=O)NC5=O)c(F)c4)CC3)cc21 [Example 400, (R)-3-(2,6-difluoro-4-((3-(4-((R,E)-1^1,2^6,7-trimethyl-3-oxo-5^2,5^3-dihydro-1^1H,5^1H-11-oxa-4-aza-5(2,1)-benzo[d]imidazola-2(2,4)-pyridina-1(4,5)-pyrazolacycloundecaphane-5^6-yl)piperazin-1-yl)propyl)amino)phenyl)piperidine-2,6-dione]
DC50 (Del19/T790M/C797S EGFR): 0.628 nM | Dmax (%) (Del19/T790M/C797S EGFR): 79.74% | DC50 (L858R/T790M/C797S EGFR): 0.915 nM | Dmax (L858R/T790M/C797S EGFR): 89.8%

Cc1cc2cc(n1)-c1cnn(C)c1OCC[C@@H]1C[C@H]1CN1/C(=N/C2=O)Nc2ccc(N3CCC(C(=O)N4CCN(c5cc(F)c([C@H]6CCC(=O)NC6=O)c(F)c5)CC4)CC3)cc21 [Example 367, (R)-3-(4-(4-(1-((71R,72S,E)-1^1,2^6-dimethyl-3-oxo-5^2,5^3-dihydro-1^1H,5^1H-10-oxa-4-aza-5(2,1)-benzo[d]imidazola-2(2,4)-pyridina-1(4,5)-pyrazola-7(1,2)-cyclopropanacyclodecaphane-5^6-yl)piperidine-4-carbonyl)piperazin-1-yl)-2,6-difluorophenyl)piperidine-2,6-dione]
DC50 (Del19/T790M/C797S EGFR): 0.623 nM | Dmax (%) (Del19/T790M/C797S EGFR): 80.77% | DC50 (L858R/T790M/C797S EGFR): 1.31 nM | Dmax (L858R/T790M/C797S EGFR): 87.8%

Cc1cc2cc(n1)-c1cnn(C)c1OCCC[C@@H](C)CN1/C(=N/C2=O)Nc2ccc(N3CCC(C(=O)N4CCC(Nc5cc(F)c([C@H]6CCC(=O)NC6=O)c(F)c5)CC4)CC3)cc21 [Example 402, (R)-3-(2,6-difluoro-4-((1-(1-((R,E)-1^1,2^6,7-trimethyl-3-oxo-5^2,53-dihydro-1^1H,5^1H-11-oxa-4-aza-5(2,1)-benzo[d]imidazola-2(2,4)-pyridina-1(4,5)-pyrazolacycloundecaphane-5^6-yl)piperidine-4-carbonyl)piperidin-4-yl)amino)phenyl)piperidine-2,6-dione]
DC50 (Del19/T790M/C797S EGFR): 0.525 nM | Dmax (%) (Del19/T790M/C797S EGFR): 82.56% | DC50 (L858R/T790M/C797S EGFR): 0.633 nM | Dmax (L858R/T790M/C797S EGFR): 88.3%

Cc1cc2cc(n1)-c1cnn(C)c1OCCC[C@@H](C)CN1/C(=N/C2=O)Nc2ccc(C3CCN(C(=O)[C@H]4CN(c5cc(F)c([C@H]6CCC(=O)NC6=O)c(F)c5)CC4(C)C)CC3)cc21 [Example 327, (R)-3-(4-((R)-3,3-dimethyl-4-(4-((R,E)-1^1,2^6,7-trimethyl-3-oxo-5^2,53-dihydro-1^1H,5^1H-11-oxa-4-aza-5(2,1)-benzo[d]imidazola-2(2,4)-pyridina-1(4,5)-pyrazolacycloundecaphane-5^6-yl)piperidine-1-carbonyl)pyrrolidin-1-yl)-2,6-difluorophenyl)piperidine-2,6-dione]
DC50 (Del19/T790M/C797S EGFR): 1.09 nM | Dmax (%) (Del19/T790M/C797S EGFR): 74.51% | DC50 (L858R/T790M/C797S EGFR): 3.17 nM | Dmax (L858R/T790M/C797S EGFR): 83.7%

Cc1cc2cc(n1)-c1cnn(C)c1OCCC[C@@H](C)CN1/C(=N/C2=O)Nc2cc(F)c(C(=O)N(C)C3CCN(CCc4cc(F)c([C@H]5CCC(=O)NC5=O)c(F)c4)CC3)cc21 [Example 232, (R,E)-N-(1-(4-((R)-2,6-dioxopiperidin-3-yl)-3,5-difluorophenethyl)piperidin-4-yl)-5^5-fluoro-N,1^1,2^6,7-tetramethyl-3-oxo-5^2,5^3-dihydro-1^1H,5^1H-11-oxa-4-aza-5(2,1)-benzo[d]imidazola-2(2,4)-pyridina-1(4,5)-pyrazolacycloundecaphane-5^6-carboxamide]
DC50 (Del19/T790M/C797S EGFR): 0.292 nM | Dmax (%) (Del19/T790M/C797S EGFR): 82.7% | DC50 (L858R/T790M/C797S EGFR): 0.318 nM | Dmax (L858R/T790M/C797S EGFR): 92%

Cc1cc2cc(n1)-c1cnn(C)c1OCCC[C@@H](C)CN1/C(=N/C2=O)Nc2ccc(OC3CCN(C(=O)C4CN(c5cc(F)c([C@H]6CCC(=O)NC6=O)c(F)c5)C4)CC3)cc21 [Example 156, (R)-3-(2,6-difluoro-4-(3-(4-(((R,E)-1^1,2^6,7-trimethyl-3-oxo-5^2,5^3-dihydro-1^1H,5^1H-11-oxa-4-aza-5(2,1)-benzo[d]imidazola-2(2,4)-pyridina-1(4,5)-pyrazolacycloundecaphane-5^6-yl)oxy)piperidine-1-carbonyl)azetidin-1-yl)phenyl)piperidine-2,6-dione]
DC50 (Del19/T790M/C797S EGFR): 1.2 nM | Dmax (%) (Del19/T790M/C797S EGFR): 72.74% | DC50 (L858R/T790M/C797S EGFR): 0.634 nM | Dmax (L858R/T790M/C797S EGFR): 86.9%

Cc1cc2cc(n1)-c1cnn(C)c1OCCC[C@@H](C)CN1/C(=N/C2=O)Nc2ccc(C(=O)N[C@H]3CCN(CCc4cc(F)c([C@H]5CCC(=O)NC5=O)c(F)c4)C[C@@H]3F)cc21 [Example 342, (R,E)-N—((3S,4S)-1-(4-((R)-2,6-dioxopiperidin-3-yl)-3,5-difluorophenethyl)-3-fluoropiperidin-4-yl)-1^1,2^6,7-trimethyl-3-oxo-5^2,5^3-dihydro-1^1H,5^1H-11-oxa-4-aza-5(2,1)-benzo[d]imidazola-2(2,4)-pyridina-1(4,5)-pyrazolacycloundecaphane-5^6-carboxamide]
DC50 (Del19/T790M/C797S EGFR): 0.607 nM | Dmax (%) (Del19/T790M/C797S EGFR): 77.52% | DC50 (L858R/T790M/C797S EGFR): 0.62 nM | Dmax (L858R/T790M/C797S EGFR): 90.8%
